Measured values from patent US4387238A, “Epoxysuccinamic acid compounds” (Taisho Pharmaceutical Co., Ltd., priority 1978, dated 1983).

These molecules were tested against T1, papain (Carica papaya, UniProt P00784) (assay: Papain inhibitory activity (milk casein proteolysis)). Conditions: amount of inhibitor for 50% inhibition; pH 6.8, 40° C., casein substrate.
T1 construct: purchased Sigma Chem. Co
T1 sequence (P00784 134-345): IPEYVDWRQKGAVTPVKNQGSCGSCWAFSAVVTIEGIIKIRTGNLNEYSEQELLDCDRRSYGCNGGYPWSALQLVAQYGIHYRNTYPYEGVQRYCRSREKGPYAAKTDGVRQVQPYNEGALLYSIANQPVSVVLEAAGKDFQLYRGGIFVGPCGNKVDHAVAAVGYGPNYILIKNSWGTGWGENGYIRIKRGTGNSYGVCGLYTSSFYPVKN
Format: biochemical
Parameters: unit not given beside the values
Description: Papain inhibitory activity of the compounds of the present invention was assayed as follows: To 0.5 ml of a solution of papain (80 μg/ml, Sigma Chem. Co., 2x, cry.), were added 0.25 ml of 40 mM cysteine dissolved in 20 mM disodium ethylenediamine tetraacetic acid solution adjusted pH to 6.8 with sodium hydroxide and 0.25 ml of 33 mM phosphate buffer (pH 6.8) with or without inhibitor. After incubation for 15 minutes at 40° C., the resulting mixture was added to 5 ml of 1% milk casein solution in the same buffer as described above, and further incubated for 10 minutes at 40° C. Then the mixture was mixed with 5 ml of 0.44 M trichloroacetic acid solution and followed by filtration with a sheet of Toyo filter paper No. 4.
The extinction of the filtrate was read at 280 nm. The percent inhibition was calculated from the formula, 100×(B-A)/B; wherein B stands for the absorbance without inhibitor and A for the absorbance with inhibitor. The compound Nos. in Table 2 are as defined in Examples as described hereinafter.
`CCOC(=O)[C@@H]1O[C@H]1C(=O)Nc1cccc(C(F)(F)F)c1` (relative stereo) [Compound No. 2, ethyl N-3'-trifluoromethylphenyl-2,3-epoxysuccinamate] was tested, and the ID50 was 40.30 γ.
`CCOC(=O)[C@@H]1O[C@H]1C(=O)Nc1cccc(C(C)=O)c1` (relative stereo) [Compound No. 3, ethyl N-3'-acetylphenyl-2,3-epoxysuccinamate] was tested, and the ID50 was 34.72 γ.
For `CCOC(=O)[C@@H]1O[C@H]1C(=O)Nc1ccccc1O` (relative stereo) [Compound No. 4, ethyl N-2'-hydroxyphenyl-2,3-epoxysuccinamate], the ID50 was 138.88 γ.
For `CCOC(=O)[C@@H]1O[C@H]1C(=O)Nc1ccc(Br)cc1` (relative stereo) [Compound No. 6, ethyl N-4'-bromophenyl-2,3-epoxysuccinamate], the ID50 was 25.51 γ.
With `CCOC(=O)c1ccccc1NC(=O)[C@@H]1O[C@H]1C(=O)OCC` (relative stereo) [Compound No. 7, ethyl N-2'-carboethoxyphenyl-2,3-epoxysuccinamate] the ID50 was 105.93 γ.
`CCOC(=O)[C@@H]1O[C@H]1C(=O)Nc1c(Cl)cccc1Cl` (relative stereo) [Compound No. 8, ethyl N-2',6'-dichlorophenyl-2,3-epoxysuccinamate] was tested, and the ID50 was 208.33 γ.
`CCOC(=O)[C@@H]1O[C@H]1C(=O)Nc1c(Br)cc(Br)cc1Br` (relative stereo) [Compound No. 9, ethyl N-2',4',6'-tribromophenyl-2,3-epoxysuccinamate] was tested, and the ID50 was 120.19 γ.
`CCOC(=O)[C@@H]1O[C@H]1C(=O)Nc1cccc(F)c1` (relative stereo) [Compound No. 10, ethyl N-3'-fluorophenyl-2,3-epoxysuccinamate] was tested, and the ID50 was 32.05 γ.
`CCOC(=O)[C@@H]1O[C@H]1C(=O)Nc1ccccn1` (relative stereo) [Compound No. 11, ethyl N-2'-pyridinyl-2,3-epoxysuccinamate] was tested, and the ID50 was 25.05 γ.
`CCOC(=O)[C@@H]1O[C@H]1C(=O)Nc1cccc2cccnc12` (relative stereo) [Compound No. 12, ethyl N-8'-quinolinyl-2,3-epoxysuccinamate] was tested, and the ID50 was 20.16 γ.
For `CCOC(=O)[C@@H]1O[C@H]1C(=O)NCc1ccccc1` (relative stereo) [Compound No. 13, ethyl N-benzyl-2,3-epoxysuccinamate], the ID50 was 13.30 γ.
In the case of `CCOC(=O)[C@@H]1O[C@H]1C(=O)NCc1ccco1` (relative stereo) [Compound No. 14, ethyl N-furfuryl-2,3-epoxysuccinamate], the ID50 is reported as 67.57 γ.
In the case of `CCOC(=O)[C@@H]1O[C@H]1C(=O)NCCc1ccccc1` (relative stereo) [Compound No. 15, ethyl N-phenethyl-2,3-epoxysuccinamate], the ID50 is reported as 26.04 γ.
In the case of `CCCNC(=O)[C@@H]1O[C@H]1C(=O)OCC` (relative stereo) [Compound No. 16, ethyl N-propyl-2,3-epoxysuccinamate], the ID50 is reported as 22.73 γ.
`CCOC(=O)[C@@H]1O[C@H]1C(=O)NCCC(C)C` (relative stereo) [Compound No. 17, ethyl N-isoamyl-2,3-epoxysuccinamate] was tested, and the ID50 was 28.41 γ.
`CCOC(=O)[C@@H]1O[C@H]1C(=O)NC1CCCC1` (relative stereo) [Compound No. 18, ethyl N-cyclopentyl-2,3-epoxysuccinamate] was tested, and the ID50 was 22.36 γ.
In the case of `CCOC(=O)[C@@H]1O[C@H]1C(=O)NC1CCCCC1` (relative stereo) [Compound No. 19, ethyl N-cyclohexyl-2,3-epoxysuccinamate], the ID50 is reported as 20.83 γ.
In the case of `CCOC(=O)[C@@H]1O[C@H]1C(=O)NCC1CCCCC1` (relative stereo) [Compound No. 20, ethyl N-cyclohexanemethyl-2,3-epoxysuccinamate], the ID50 is reported as 20.49 γ.
In the case of `CCOC(=O)[C@@H]1O[C@H]1C(=O)N1CCOCC1` (relative stereo) [Compound No. 21], the ID50 is reported as 93.28 γ.
In the case of `CCOC(=O)[C@@H]1O[C@H]1C(=O)N1CCSCC1` (relative stereo) [Compound No. 22, ethyl N-thiadiethylene-2,3-epoxysuccinamate], the ID50 is reported as 95.01 γ.
For `CCOC(=O)[C@@H]1O[C@H]1C(=O)N1CCN(C)CC1` (relative stereo) [Compound No. 23, ethyl N-N'-methylaminodiethylene-2,3-epoxysuccinamate], the ID50 was 868.05 γ.
`O=C(Nc1ccc(I)cc1)[C@@H]1O[C@H]1C(=O)OC1CCCC1` (relative stereo) [Compound No. 24, cyclopentyl N-4'-iodophenyl-2,3-epoxysuccinamate] was tested, and the ID50 was 3.47 γ.
`O=C(Nc1ccccc1)[C@@H]1O[C@H]1C(=O)OCCC1CCCC1` (relative stereo) [Compound No. 26, 2'-cyclopentylethyl N-phenyl-2,3-epoxysuccinamate] was tested, and the ID50 was 2.08 γ.
In the case of `O=C(Nc1ccccc1)[C@@H]1O[C@H]1C(=O)OCCCC1CCCCC1` (relative stereo) [Compound No. 27, 3'-cyclohexylpropyl N-phenyl-2,3-epoxysuccinamate], the ID50 is reported as 3.05 γ.
For `O=C(Nc1ccccc1)[C@@H]1O[C@H]1C(=O)Oc1ccccc1` (relative stereo) [Compound No. 28, phenyl N-phenyl-2,3-epoxysuccinamate], the ID50 was 6.41 γ.
In the case of `COc1ccccc1NC(=O)[C@@H]1O[C@H]1C(=O)OCc1ccccc1` (relative stereo) [Compound No. 29, benzyl N-2'-methoxyphenyl-2,3-epoxysuccinamate], the ID50 is reported as 2.91 γ.
For `C=CCOC(=O)[C@@H]1O[C@H]1C(=O)Nc1ccccc1` (relative stereo) [Compound No. 30, allyl N-phenyl-2,3-epoxysuccinamate], the ID50 was 3.68 γ.
In the case of `CCOC(=O)[C@@H]1O[C@H]1C(=O)N(C)CC1CCCCC1` (relative stereo) [Compound No. 32, ethyl N-methyl-N-cyclohexanemethyl-2,3-epoxysuccinamate], the ID50 is reported as 71.40 γ.
`COC(=O)[C@@H]1O[C@H]1C(=O)Nc1ccccc1C` (relative stereo) [Compound No. 35, Methyl N-2'-methylphenyl-2,3-epoxysuccinamate] was tested, and the ID50 was 16.52 γ.
With `CCCOC(=O)[C@@H]1O[C@H]1C(=O)Nc1ccc(I)cc1` (relative stereo) [Compound No. 36, Propyl N-4'-iodophenyl-2,3-epoxysuccinamate] the ID50 was 4.04 γ.
In the case of `COc1ccccc1NC(=O)[C@H]1O[C@@H]1C(=O)OC(C)C` (relative stereo) [Compound No. 37, Isopropyl N-2'-methoxyphenyl-2,3-epoxysuccinamate], the ID50 is reported as 5.81 γ.
`CC(C)COC(=O)[C@H]1O[C@@H]1C(=O)NCc1ccco1` (relative stereo) [Compound No. 39, Isobutyl N-furfuryl-2,3-epoxysuccinamate] was tested, and the ID50 was 3.08 γ.
For `CC#CCOC(=O)[C@H]1O[C@@H]1C(=O)NCC` (relative stereo) [Compound No. 41, 2'-Butynyl N-ethyl-2,3-epoxysuccinamate], the ID50 was 15.23 γ.
With `CC#CCOC(=O)[C@@H]1O[C@H]1C(=O)NCc1cccs1` (relative stereo) [Compound No. 42, 2'-Butynyl N-thenyl-2,3-epoxysuccinamate] the ID50 was 14.15 γ.
For `CC(C)CCOC(=O)[C@H]1O[C@@H]1C(=O)Nc1ccccc1` (relative stereo) [Compound No. 43, Isoamyl N-phenyl-2,3-epoxysuccinamate], the ID50 was 3.01 γ.
For `O=C(NC1CCCCC1)[C@H]1O[C@@H]1C(=O)OC1CCCCC1` (relative stereo) [Compound No. 44, Cyclohexyl N-cyclohexyl-2,3-epoxysuccinamate], the ID50 was 3.14 γ.
With `O=C(Nc1ccccc1)[C@H]1O[C@@H]1C(=O)OC1C=CCC1` (relative stereo) [Compound No. 46, 2'-Cyclopentenyl N-phenyl-2,3-epoxysuccinamate] the ID50 was 2.98 γ.
With `O=C(NC1CCCC1)[C@H]1O[C@@H]1C(=O)Oc1ccccc1` (relative stereo) [Compound No. 47, Phenyl N-cyclopentyl-2,3-epoxysuccinamate] the ID50 was 3.64 γ.
In the case of `O=C(Nc1cccc(F)c1)[C@H]1O[C@@H]1C(=O)OCc1ccccc1` (relative stereo) [Compound No. 49, Benzyl N-3'-fluorophenyl-2,3-epoxysuccinamate], the ID50 is reported as 3.94 γ.
In the case of `COC(=O)[C@H]1O[C@@H]1C(=O)Nc1ccccc1` (relative stereo) [Compound No. 50, methyl N-phenyl-2,3-epoxysuccinamate], the ID50 is reported as 16.95 γ.
In the case of `CCOC(=O)[C@H]1O[C@@H]1C(=O)Nc1cccc(C)c1` (relative stereo) [Compound No. 51, ethyl N-3'-methylphenyl-2,3-epoxysuccinamate], the ID50 is reported as 18.66 γ.
With `CCCCOC(=O)[C@H]1O[C@@H]1C(=O)Nc1ccccc1` (relative stereo) [Compound No. 52, butyl N-phenyl-2,3-epoxysuccinamate] the ID50 was 5.32 γ.
With `O=C(Nc1ccccc1)[C@H]1O[C@@H]1C(=O)OCC1CC=CCC1` (relative stereo) [Compound No. 53, 3'-cyclohexenemethyl N-phenyl-2,3-epoxysuccinamate] the ID50 was 1.63 γ.
For `CCNC(=O)[C@H]1O[C@@H]1C(=O)OC` (relative stereo) [Compound No. 54, methyl N-ethyl-2,3-epoxysuccinamate], the ID50 was 10.07 γ.
